According to patent US20260184669A1, “LIPID COMPOUND AND COMPOSITION FOR DELIVERY OF ACTIVE SUBSTANCE” (KOREA RESEARCH INSTIUTE OF BIOSCIENCE AND BIOTECHNOLOGY, priority 2022, published 2026):

Legend:
[1] = mRNA encapsulation efficiency (Quant-IT RiboGreen RNA assay); format: physicochemical; conditions: mRNA encapsulation efficiency of mRNA-LNP made with the ionizable lipid; average of two measurements
Procedure: The mRNA encapsulation efficiency (EE, %) of LNPs containing mRNA was measured using the Quant-IT™ RiboGreen® RNA assay kit (Invitrogen, USA).
The diluted samples were added to each well of a 96-well plate. Group A (without Triton X-100) was supplemented with 50 μL of 1×TE buffer, while Group B (with Triton X-100) was supplemented with 50 μL of 1×TE buffer containing 2% Triton-X 100. To release the encapsulated mRNA, the LNPs were treated with Triton-X 100 and incubated at 37° C. for 10 minutes. Subsequently, 100 μL of ribogreen reagent was added to each well. The fluorescence intensities of Group A and Group B were measured using a multi-plate reader (λex 480 nm, λem 520 nm), and mRNA encapsulation efficiency (%) was calculated using Equation 1 below. The encapsulation efficiency for each LNP was determined as the average of two independent measurements.

[2] = Size, polydispersity index and surface charge of mRNA-LNP (Malvern Zetasizer Nano ZS90); format: physicochemical; conditions: for PDI / size (nm) Number: mRNA-LNP made with the ionizable lipid at its optimal formulation (Table 2); for size (nm) Number: diluted with PBS to 1 μg/mL mRNA; for Zeta (mV): surface charge of mRNA-LNP made with the ionizable lipid at its optimal formulation (Table 2)
Procedure: Each mRNA-LNPs produced in Example 27 was diluted with PBS to a final mRNA concentration of 1 μg/mL. The size, polydispersity index (PDI), and surface charge of the mRNA-LNPs were then measured using a Malvern Zetasizer Nano ZS90 (Malvern Instruments, UK).
For particles intended for systemic administration, such as via blood vessels, the particle size must be less than 200 nm in order to pass through the endothelial capillaries of the liver. In addition, the size distribution is considered uniform only when the PDI is 0.3 or less, which enables consistent and efficient therapeutic effects (Non-patent document 3 [Danaei, M. et al). Pharmaceutics 2018, 10, 57]).

[3] = Stability of mRNA-LNPs according to storage temperature and duration; format: physicochemical; conditions: for Normalized EE % D-1 / Size (nm) D-1 / PDI D-1: day 1; for Normalized EE % D-7 / PDI D-7 / Size (nm) D-7: day 7; for Normalized EE % D-30 / PDI D-30 / Size (nm) D-30: day 30
Procedure: Stability of fLuc mRNA-LNPs produced using various ionizable lipids according to the method of Example 27, was assessed by storing the LNPs at 4° C. and 25° C. At 1, 7, and 30 days post-manufacture, the size, PDI, and encapsulation efficiency (EE) of each mRNA-LNPs samples were measured using the methods described in Experimental Examples 2 and 3.

female C57BL/6 mice = assay: Protein expression efficiency of fLuc mRNA-LNPs after intramuscular injection (IVIS whole-body luminescence); format: in vivo; conditions: for Total flux 1 hour / Total flux 3 hours / Total flux 6 hours / Total flux 48 hours / Total flux 72 hours / Total flux: fLuc mRNA-LNP, intramuscular injection, luminescence at injection site, mice; for Total flux 1 hour: 1 hour after administration; for Total flux 3 hours: 3 hours after administration; for Total flux 6 hours: 6 hours after administration; for Total flux 48 hours: 48 hours after administration; for Total flux 72 hours: 72 hours after administration; for Total flux: after administration; for Fold increase in total flux at 3 h, MC3: relative to control LNP formulated with MC3; for Fold increase in total flux at 3 h, MC3 / Fold increase in total flux at 3 h, SM-102: 3 hours after intramuscular injection; for Fold increase in total flux at 3 h, SM-102: relative to control LNP formulated with SM-102
Procedure: fLuc mRNA-LNPs formulated using various ionizable lipids were prepared according to the method described in Example 27 and administered in vivo via intramuscular (I. M.) or intravenous (IV.) injection to compare the resulting protein expression efficiency in vivo. As a control, EGFP mRNA-LNPs formulated with commercially available ionizable lipids MC3 or SM-102 were used. All mRNA-LNPs were administered at equal mRNA doses per body weight across different concentration groups (n≥4).
Specifically, the dose of mRNA-LNPs was adjusted to 0.1-0.5 mg/kg of body weight, and the formulation was administered via I.M. or I.V. injection to female C57BL/6 mice (6-10 weeks old, Orient Bio, Korea) Subsequently, […], whole-body luminescence images were acquired using an in vivo imaging system (IVIS Lumina III, PerkinElmer, Walzam, MA, USA). To assess protein expression levels, 200 μL of D-luciferin (15 mg/mL) was administered via intraperitoneal (I.P.) injection 10 minutes prior to imaging. During image acquisition, the animals were anesthetized by inhalation of 3% isoflurane in 97% medical grade oxygen. In addition, the acquired luminescence images were quantitatively analyzed using imaging software (Living Image Software Version 4.4; PerkinElmer, USA).
After intramuscular injection of the fLuc mRNA-LNPs, the luminescence intensity at the injection site was measured over time.
Furthermore, the luminescence intensity at the injection site 3 hours after intramuscular injection was measured, and the relative protein expression efficiency was compared to that of control LNPs formulated with MC3 or SM-102.

| Structure (SMILES) | EE (%) [1] [%] | PDI [2] | size (nm) Number [2] [nm] | Zeta (mV) [2] [mV] | Normalized EE % D-1 ([3]; fLuc mRNA-LNP stored at 4° C.) [%] | Size (nm) D-1 ([3]; fLuc mRNA-LNP stored at 4° C.) [nm] | Normalized EE % D-7 ([3]; fLuc mRNA-LNP stored at 4° C.) [%] | PDI D-7 ([3]; fLuc mRNA-LNP stored at 4° C.) | Size (nm) D-7 ([3]; fLuc mRNA-LNP stored at 4° C.) [nm] | Normalized EE % D-30 ([3]; fLuc mRNA-LNP stored at 4° C.) [%] | PDI D-30 ([3]; fLuc mRNA-LNP stored at 4° C.) | Size (nm) D-30 ([3]; fLuc mRNA-LNP stored at 4° C.) [nm] | Normalized EE % D-1 ([3]; fLuc mRNA-LNP stored at 25° C.) [%] | PDI D-1 ([3]; fLuc mRNA-LNP stored at 25° C.) | Size (nm) D-1 ([3]; fLuc mRNA-LNP stored at 25° C.) [nm] | Normalized EE % D-7 ([3]; fLuc mRNA-LNP stored at 25° C.) [%] | PDI D-7 ([3]; fLuc mRNA-LNP stored at 25° C.) | Size (nm) D-7 ([3]; fLuc mRNA-LNP stored at 25° C.) [nm] | Normalized EE % D-30 ([3]; fLuc mRNA-LNP stored at 25° C.) [%] | PDI D-30 ([3]; fLuc mRNA-LNP stored at 25° C.) | further results |
| --- | --- | --- | --- | --- | --- | --- | --- | --- | --- | --- | --- | --- | --- | --- | --- | --- | --- | --- | --- | --- | --- |
| CCCCCCCCCCCOC(=O)CCCCCN(CCCCCCCC(=O)OC(CCCCCCCC)CCCCCCCC)CC(O)CCCCNC(=O)c1c[nH]cn1 (stereo not shown) [Compound 34, Heptadecan-9-yl 8-((2-hydroxy-6-(1H-imidazole-4-carboxamido)hexyl)(6-oxo-6-(undecyloxy)hexyl)amino)octanoate] | 94 | 0.143 | 117 | −1.50 | 94.0 | 116.7 | 92.9 | 0.126 | 121.7 | 91.4 | 0.079 | 164.4 | 94.0 | 0.143 | 116.7 | 90.9 | 0.139 | 129.6 | 89.3 | 0.132 | Size (nm) D-30 ([3]; fLuc mRNA-LNP stored at 25° C.): 164.4 nm; Total flux 1 hour (female C57BL/6 mice): 6.37E+06; Total flux 3 hours (female C57BL/6 mice): 3.60E+07; Total flux 6 hours (female C57BL/6 mice): 1.70E+07; Total flux 48 hours (female C57BL/6 mice): 1.11E+06; Total flux 72 hours (female C57BL/6 mice): 7.64E+05; Total flux (female C57BL/6 mice): 2.79E+06; Fold increase in total flux at 3 h, MC3 (female C57BL/6 mice): 2.91; Fold increase in total flux at 3 h, SM-102 (female C57BL/6 mice): 0.32 |
| CCCCCCCCCCCOC(=O)CCCCCN(CCCCCCCC(=O)OC(CCCCCCCC)CCCCCCCC)CC(O)CCCCNC(=O)c1cn(C)cn1 (stereo not shown) [Compound 37, Heptadecan-9-yl 8-((2-hydroxy-6-(1-methyl-1H-imidazole-4-carboxamido)hexyl)(6-oxo-6-(undecyloxy)hexyl)amino)octanoate] | 89 | 0.154 | 115 | −3.30 | 89.5 | 114.5 | 89.9 | 0.155 | 123.7 | 90.0 | 0.280 | 138.7 | 89.5 | 0.154 | 114.5 | 88.0 | 0.087 | 133.6 | 83.8 | 0.126 | Size (nm) D-30 ([3]; fLuc mRNA-LNP stored at 25° C.): 135.7 nm; Total flux 1 hour (female C57BL/6 mice): 7.40E+06; Total flux 3 hours (female C57BL/6 mice): 8.89E+06; Total flux 6 hours (female C57BL/6 mice): 5.97E+06; Total flux 48 hours (female C57BL/6 mice): 2.13E+06; Total flux 72 hours (female C57BL/6 mice): 1.85E+06; Total flux (female C57BL/6 mice): 2.32E+06; Fold increase in total flux at 3 h, MC3 (female C57BL/6 mice): 0.72; Fold increase in total flux at 3 h, SM-102 (female C57BL/6 mice): 0.08 |
